{"source": "paper PMC2891058", "about": "(Biochemistry, 2010)", "key": {"[1]": {"biological_target": "S. typhimurium QAPRTase (quinolinate phosphoribosyltransferase) (Salmonella enterica, UniProt P30012, E215D)", "assay": "biochemical"}, "[2]": {"biological_target": "S. typhimurium QAPRTase (quinolinate phosphoribosyltransferase) (Salmonella enterica, UniProt P30012, K285A)", "assay": "biochemical"}, "[3]": {"biological_target": "S. typhimurium QAPRTase (quinolinate phosphoribosyltransferase) (Salmonella enterica, UniProt P30012, E215A)", "assay": "biochemical"}, "[4]": {"biological_target": "S. typhimurium QAPRTase (quinolinate phosphoribosyltransferase) (Salmonella enterica, UniProt P30012)", "assay": "stopped-flow tryptophan fluorescence", "type": "binding"}, "[5]": {"biological_target": "S. typhimurium QAPRTase (quinolinate phosphoribosyltransferase) (Salmonella enterica, UniProt P30012, K154A)", "assay": "biochemical"}, "[6]": {"biological_target": "S. typhimurium QAPRTase (quinolinate phosphoribosyltransferase) (Salmonella enterica, UniProt P30012, D236A)", "assay": "biochemical"}, "[7]": {"biological_target": "S. typhimurium QAPRTase (quinolinate phosphoribosyltransferase) (Salmonella enterica, UniProt P30012, E215Q)", "assay": "biochemical"}}, "data": [{"smiles": "O=P(O)(O)OC[C@H]1O[C@H](OP(=O)(O)OP(=O)(O)O)[C@H](O)[C@@H]1O", "note": "[PRPP]", "values": [{"measurement": "Kd", "setting": "[1]", "result": "417 ± 76", "unit": "µM"}, {"measurement": "Kd", "setting": "[2]", "result": "~1000", "unit": "µM"}, {"measurement": "Kd", "setting": "[3]", "result": "770 ± 200", "unit": "µM"}, {"measurement": "Kd", "setting": "[4]", "result": 53, "unit": "µM"}, {"measurement": "Kd", "setting": "[5]", "result": "> 1000", "unit": "µM"}, {"measurement": "Kd", "setting": "[6]", "result": "127 ± 25", "unit": "µM"}, {"measurement": "Kd", "setting": "[7]", "result": "113 ± 24", "unit": "µM"}]}]}
